Assay results as given in US8735396B2, “Benzofuranyl derivatives” (Pfizer Inc., priority 2009, dated 2014).

Target: T1, Full-length glucokinase (beta cell isoform) (Homo sapiens, UniProt P35557)
T1 construct: Full-length glucokinase (beta cell isoform) was His-tagged at N-terminus; His tag (N); made in house; host or cells: E. coli BL21(DE3) carrying the pBCGK vector
T1 sequence (P35557 1-465): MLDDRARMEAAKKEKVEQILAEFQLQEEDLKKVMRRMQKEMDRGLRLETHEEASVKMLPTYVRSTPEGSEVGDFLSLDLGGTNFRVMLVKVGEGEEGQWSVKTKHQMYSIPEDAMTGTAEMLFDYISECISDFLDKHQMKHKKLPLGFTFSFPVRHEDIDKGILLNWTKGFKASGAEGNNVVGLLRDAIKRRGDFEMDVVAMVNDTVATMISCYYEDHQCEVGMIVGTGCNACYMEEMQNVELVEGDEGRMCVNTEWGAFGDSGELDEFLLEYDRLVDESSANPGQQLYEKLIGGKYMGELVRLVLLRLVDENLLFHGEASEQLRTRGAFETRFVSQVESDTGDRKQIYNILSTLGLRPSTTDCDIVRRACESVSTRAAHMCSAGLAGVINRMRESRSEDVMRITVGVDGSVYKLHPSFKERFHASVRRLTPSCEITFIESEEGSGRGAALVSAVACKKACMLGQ
Test: In vitro glucokinase activation assay (PK/LDH coupled, NADH depletion at 340 nm)
Assay type: biochemical
Conditions: 5 mM glucose, 2.5 mM ATP; for EC50: pH 7.1, room temperature; for Emax: pH 7.1, (Va/Vo−1)×100 fitted, read-out: Maximum Activation (%)
Description: Full-length glucokinase (beta cell isoform) was His-tagged at N-terminus and purified by a Ni column followed by size exclusion chromatography. A 320 mL column was packed in house using Superdex75 (Amersham Pharmacia, Carlsbad, Calif.) preparation grade resin. Glucose was obtained from Calbiochem (San Diego, Calif.) and other reagents were purchased from Sigma-Aldrich (St. Louis, Mo.).
All assays were performed in a Corning 384-well plate using Spectramax PLUS spectrophotometer (Molecular Devices, Sunnyvale, Calif.) at room temperature. The final assay volume was 40 μL. The buffer conditions used in this assay were as follows: 50 mM HEPES, 5 mM glucose, 2.5 mM ATP, 3.5 mM MgCl2, 0.7 mM NADH, 2 mM dithiothreitol, 1 unit/mL pyruvate kinase/lactate dehydrogenase (PK/LDH), 0.2 mM phosphoenolpyruvate, and 25 mM KCl. The buffer pH was 7.1. The test compound in dimethylsulfoxide solution was added to the buffer and mixed by a plate shaker for 7.5 minutes.
Glucokinase was added to the buffer mixture to initiate the reaction in the presence and absence of compound. The reaction was monitored by absorbance at 340 nm due to the depletion of NADH. The initial reaction velocity was measured by the slope of a linear time course of 0-300 seconds. The percentage of maximum activation was calculated by the following equation: % Maximum Activation=(Va/Vo−1)×100; wherein each of Va and Vo is defined as the initial reaction velocity in the presence and absence of the tested compound, respectively.
The glucokinase activities were measured as a function of compound concentrations.

Structure (SMILES)	EC50	Emax
COc1cnc(NC(=O)c2cc(Oc3cnc(C(=O)N(C)C)nc3)c3cc(C)oc3c2)cn1 [Example 3, 5-(6-((5-methoxypyrazin-2-yl)carbamoyl)-2-methylbenzofuran-4-yloxy)-N,N-dimethylpyrimidine-2-carboxamide]	462 nM	69.5%
CCN(C)C(=O)c1cnc(Oc2cc(C(=O)Nc3cnc(C)cn3)cc3oc(C)cc23)cn1 [Example 7, N-ethyl-N-methyl-5-(2-methyl-6-((5-methylpyrazin-2-yl)carbamoyl)-benzofuran-4-yloxy)pyrazine-2-carboxamide]	474 nM	63.4%
Cc1cc2c(Oc3cnc(C(=O)N(C)C)nc3)cc(C(=O)Nc3ccn(C)n3)cc2o1 [Example 4, N,N-dimethyl-5-(2-methyl-6-((1-methyl-1H-pyrazol-3-yl)-carbamoyl)benzofuran-4-yloxy)pyrimidine-2-carboxamide]	629 nM	63.9%
CCN(C)C(=O)c1ncc(Oc2cc(C(=O)Nc3ccn(C)n3)cc3oc(C)cc23)cn1 [Example 6, N-ethyl-N-methyl-5-(2-methyl-6-((1-methyl-1H-pyrazol-3-yl)carbamoyl)benzofuran-4-yloxy)pyrimidine-2-carboxamide]	382 nM	54.1%
CCN(C)C(=O)c1ncc(Oc2cc(C(=O)Nc3cnc(C)cn3)cc3oc(C)cc23)cn1 [Example 5, N-ethyl-N-methyl-5-(2-methyl-6-((5-methylpyrazin-2-yl)carbamoyl)benzofuran-4-yloxy)pyrimidine-2-carboxamide]	546 nM	57.6%
